Experiments:
HTR5A = target: T1, HTR5A (Homo sapiens, UniProt P47898); assay: NanoBRET screen HiBiT-HTR5A in HEK293; type: binding
T1 construct: purchased Promega (in-house HiBiT-GPCR construct library, NanoBRET)
Method: (§1) Each tracer candidate was screened across the entire library of HiBiT-GPCR constructs using NanoBRET as the detection modality. As depicted in Figure 4A, the specificity of interactions was evaluated through decrease in BRET due to competitive displacement of a bound tracer by excess parental compound. Each tracer was analyzed for binding to each HiBiT-GPCR fusion in the absence and in the presence of competing parental compound. Briefly, HEK293 cells were transfected with HiBiT-GPCR constructs diluted into promoterless DNA to reduce expression and maximize translocation to the cell surface. Each tracer candidate was then screened at concentrations of 1 μM and 0.1 μM across cells expressing these fusions. Cells were treated for 1.5 h with tracer either alone or in the presence of 20 μM competing parental compound (i.e., control). BRET was measured upon addition of purified LgBiT and subsequent complementation with HiBiT genetically fused to a GPCR. The specificity of interactions was assessed through a decrease in BRET signal due to competitive displacement of the bound tracer. To further gauge the robustness of these interactions, the fold response over the control (i.e., BRETtracer/BRETcontrol) was calculated. We chose a 1.5-fold response, which translates to ≥7-fold signal over noise as the minimal threshold required to score an interaction as positive. […]. Below we highlight the screening results obtained for our exemplary fluorescent tracers based on Clozapine, Amitriptyline and AZD1283.
(§2) HiBiT-GPCR DNA constructs were diluted in 10 mM Tris pH 8 to a final concentration of 0.01 μg/μL, arrayed in 96-well plates and stored at −20 °C. For transfection, HEK293 cells were suspended in Opti-MEM (without phenol red) supplemented with 2% fetal bovine serum (Seradigm) and 100 units/mL penicillin–streptomycin (Gibco) at a final concentration of 220,000 cells/mL and dispensed into white 96-well plates at 90 μL/well. Subsequent transfections and screens were carried using an Agilent Bravo Automated Liquid Handling Platform. First, the 96-well HiBiT DNA arrays were diluted 25-fold in Opti-MEM (without serum or phenol red) to a final concentration of 0.0004 μg/μL and 20 μL of the diluted DNAs were transferred into new 96-well plates. Next, promoterless carrier DNA (1 μg/μL) was diluted 25-fold (0.04 μg/μL) and then dispensed into the diluted arrays at 20 μL/well. Following brief mixing, Viafect transfection reagent (Promega) diluted 16-fold into Opti-MEM was dispensed into the plates at 40 μL/well. After mixing by pipetting, plates were incubated for 10 min on the pipetting station deck. The DNA-transfection reagent complexes were then added to plates containing cells. To facilitate the screen, 10 μL of DNA-transfection reagent complexes were added in duplicates to the top 4 and bottom 4 rows, resulting in two identical 48-well arrays per plate. Plates with transfected cells were incubated for 18–20 h at 37 °C/5% CO2. A screen of each tracer across the entire library using two different concentrations requires duplicate plates of transfected cells. Depending on the number of tracers being screened, transfections can be scaled up using the same ratios. The next day, for each tracer, four 20× screening solutions in tracer dilution buffer (Promega) were prepared: two duplicates at final concentration of 20 μM and two duplicates at a final concentration of 2 μM. A competing unmodified compound was added to one of each duplicate at a final concentration of 400 μM. The four resulting solutions were diluted 4-fold in Opti-MEM without serum or phenol red to generate 5× solutions (5 µM and 0.5 µM tracer +/− 100 μM competing compound). To screen the library, a BioTek MultiFlo FX liquid dispenser was used to dispense 22.5 µL of tracer solution to the top 4 rows and 22.5 µL tracer + competing compound solution to the 4 bottom rows. Plates were briefly mixed on an orbital shaker and incubated for 1.5 h at room temperature. […]

CCKBR = target: T2, CCKBR (Homo sapiens, UniProt P32239); assay: NanoBRET screen HiBiT-CCKBR in HEK293; type: binding
T2 construct: purchased Promega (in-house HiBiT-GPCR construct library, NanoBRET)
T2 sequence (P32239 1-447): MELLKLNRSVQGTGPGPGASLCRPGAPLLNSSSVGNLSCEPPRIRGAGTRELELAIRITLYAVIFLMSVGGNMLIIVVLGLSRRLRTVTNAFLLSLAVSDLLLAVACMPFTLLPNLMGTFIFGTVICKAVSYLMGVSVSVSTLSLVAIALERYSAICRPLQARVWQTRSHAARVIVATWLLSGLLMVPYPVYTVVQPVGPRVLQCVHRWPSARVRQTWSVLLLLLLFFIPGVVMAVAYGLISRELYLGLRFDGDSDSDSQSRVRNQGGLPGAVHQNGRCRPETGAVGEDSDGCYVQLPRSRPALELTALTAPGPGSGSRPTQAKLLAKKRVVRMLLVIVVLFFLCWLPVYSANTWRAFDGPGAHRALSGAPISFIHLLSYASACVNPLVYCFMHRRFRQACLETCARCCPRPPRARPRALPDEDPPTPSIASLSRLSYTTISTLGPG
Method: as §1, §2

[1] = tracer at 0.1μM, listed as amitriptyline-b-2-NB590
[2] = tracer at 1μM, listed as amitriptyline-b-2-NB590

T1 sequence (P47898 whole entry): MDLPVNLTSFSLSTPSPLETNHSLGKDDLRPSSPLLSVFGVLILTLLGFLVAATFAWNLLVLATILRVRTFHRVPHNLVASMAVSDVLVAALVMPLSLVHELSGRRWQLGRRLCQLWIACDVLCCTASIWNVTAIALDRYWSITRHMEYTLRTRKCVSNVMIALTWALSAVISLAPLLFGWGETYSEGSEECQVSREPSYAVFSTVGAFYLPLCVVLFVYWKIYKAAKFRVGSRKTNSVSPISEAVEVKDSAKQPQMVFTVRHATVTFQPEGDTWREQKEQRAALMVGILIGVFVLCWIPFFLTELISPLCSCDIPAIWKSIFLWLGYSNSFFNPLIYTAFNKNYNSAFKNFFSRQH

Row | Compound | NanoBRET Fold Response (HTR5A; HTR5A, tracer 0.1μM) | NanoBRET Fold Response (HTR5A; HTR5A, tracer 1μM) | NanoBRET Fold Response (CCKBR; CCKBR, tracer 0.1μM) | NanoBRET Fold Response (CCKBR; CCKBR, tracer 1μM) | also measured
1 | CN(C)CCC=C1c2ccccc2CCc2ccc(C(=O)NCCNC(=O)CCOCCOCCOCCOCCNC(=O)CCc3ccc4n3[B-](F)(F)[N+]3=C(c5ccc[nH]5)C=CC3=C4)cc21 [Amitriptyline-a-2-NB590] | – | – | – | – | NanoBRET Fold Response (HTR5A; tracer at 0.1μM): 1.08; NanoBRET Fold Response (CCKBR; tracer at 0.1μM): 1.02; NanoBRET Fold Response (CCKBR; tracer at 1μM): 0.98
2 | Cc1cc2c(s1)Nc1ccccc1N=C2N1CCN(CCCNC(=O)CCOCCOCCOCCOCCNC(=O)CCc2ccc3n2[B-](F)(F)[N+]2=C(c4ccc[nH]4)C=CC2=C3)CC1 [Olanzapine-a-2-NB590] | 1.06 | 1.03 | 1.07 | 0.89 | –
3 | N#CN=C(NCCCOc1cccc(CN2CCCCC2)c1)NCCNC(=O)CCOCCOCCOCCOCCNC(=O)CCc1ccc2n1[B-](F)(F)[N+]1=C(c3ccc[nH]3)C=CC1=C2 [Aminopotentidine-2-NB590] | 1.00 | 0.90 | 1.17 | 1.04 | –
4 | Cc1nc2n(c(=O)c1CCN1CCC(c3noc4cc(F)ccc34)CC1)CCCC2OC(=O)NCCOCCOCCOCCOCCNC(=O)CCc1ccc2n1[B-](F)(F)[N+]1=C(c3ccc[nH]3)C=CC1=C2 (stereo not shown) [Risperidone-2-NB590] | 1.03 | 1.28 | 1.01 | 0.81 | –
5 | CN(C)CCC=C1c2ccccc2CCc2ccc(C(=O)NCCNC(=O)CCOCCOCCOCCOCCNC(=O)CCc3ccc4n3[B-](F)(F)[N+]3=C(c5ccc[nH]5)C=CC3=C4)cc21 [Amitriptyline-b-2-NB590] | – | – | – | – | NanoBRET Fold Response (HTR5A; [1]): 1.22; NanoBRET Fold Response (HTR5A; [2]): 1.26; NanoBRET Fold Response (CCKBR; [1]): 1.10; NanoBRET Fold Response (CCKBR; [2]): 1.09
